Here are results for 25 compounds from the supplement of paper PMC11061612.

Assay [1] relates to OCI-AML3 (Acute Myeloid Leukemia). Nature of the assay: Bliss excess, mean over the matrix (fraction); higher = more synergy. A digest of the protocol: (§1)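 Cell lines in DMEM/F12 or RPMI with 10% FBS were plated in 1536-well plates, held 24 hours at 37°C, 5% CO2, then given two-drug dose matrices for 72 hours (DMSO typically 0.2%). Viability was read by CellTiter-Glo 2.0 luminescence and scaled as inhibition from 0 (vehicle wells) to 1 (blank wells). Combination Emax is the second-highest inhibition in the matrix; Bliss excess is observed combination effect minus expected EA + EB − EA·EB, EA and EB being single-agent effects.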

For assay [2], the system named is H9 (T-Cell Non-Hodgkin's Lymphoma). The assay is described as above. A digest of the protocol:
as §1

The subject of assay [3] is ST486 (Burkitt's Lymphoma). The description is as above. A digest of the protocol:
as §1

Assay [4] has as its system OCI-AML3 (Acute Myeloid Leukemia). Nature of the assay: combination Emax (second highest fraction inhibited in the dose matrix, 72 h); higher = more inhibition; extreme values may be limits of the assay. A digest of the protocol: as §1
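For Bliss excess, mean over the matrix in this document: after 72 h of two-drug dosing.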

Turning to `NC1(C(=O)N[C@@H](CCO)c2ccc(Cl)cc2)CCN(c2ncnc3[nH]ccc23)CC1` [Capivasertib] + COc1nnc2ccc(N3CCC(c4ccc(OCCN5CCN(C)C(=O)[C@H]5C)cc4)CC3)nn12 [AZD5153] (first compound max 10 µM, 7x7, partner max 1 µM), the figures for the Bliss excess in assay [1], in assay [2] and in assay [3] were -0.014, -0.0047 and -0.0552, respectively. Moreover, the “combination Emax” value in assay [4] is 1.

As for `C[C@@H](c1ccc2nccn2c1)n1nnc2ncc(-c3cnn(C)c3)nc21` [Savolitinib] + Cc1c2c(nn1C)CSCc1cc(n(C)n1)CSc1cc(c3ccccc3c1)OCCCc1c(C(=O)O)n(C)c3c-2c(Cl)ccc13 [AZD5991] (first compound max 1 µM, 7x7, partner max 1 µM), the Bliss excess in assay [1] is -0.0103; in assay [2] it was 0.0005; in assay [3], -0.0159. Further, in assay [4], the “combination Emax” value was found to be 0.967.

On to `COc1nnc2ccc(N3CCC(c4ccc(OCCN5CCN(C)C(=O)[C@H]5C)cc4)CC3)nn12` [AZD5153] + Cn1cnc2c(F)c(Nc3ccc(Br)cc3Cl)c(C(=O)NOCCO)cc21 [Selumetinib] (first compound max 1 µM, 7x7, partner max 10 µM), for which the Bliss excess in assay [1] was -0.0046; in assay [2], 0.0074; in assay [3], 0.031. The “combination Emax” value in assay [4] was 1.

Turning to `COc1nnc2ccc(N3CCC(c4ccc(OCCN5CCN(C)C(=O)[C@H]5C)cc4)CC3)nn12` [AZD5153] + Cc1c2c(nn1C)CSCc1cc(n(C)n1)CSc1cc(c3ccccc3c1)OCCCc1c(C(=O)O)n(C)c3c-2c(Cl)ccc13 [AZD5991] (first compound max 1 µM, 7x7, partner max 1 µM), the Bliss excess in assay [1] is -0.0565; in assay [2] it was -0.0056; in assay [3] it was -0.0275. In addition, in assay [4], the “combination Emax” value worked out at 1.

Turning to `CS(=O)(=O)CCNCc1ccc(-c2ccc3ncnc(Nc4ccc(OCc5cccc(F)c5)c(Cl)c4)c3c2)o1` [Lapatinib] + Cn1cnc2c(F)c(Nc3ccc(Br)cc3Cl)c(C(=O)NOCCO)cc21 [Selumetinib] (first compound max 10 µM, 7x7, partner max 10 µM), the Bliss excess was -0.0562 in assay [1] and 0.0111 in assay [3]. In assay [4], the “combination Emax” value was found to be 0.879.

On to `Cn1cnc2c(F)c(Nc3ccc(Br)cc3Cl)c(C(=O)NOCCO)cc21` [Selumetinib] + C[C@@H]1COCCN1C2=NC(=NC(=C2)C3(CC3)[S@](=N)(=O)C)C4=C5C=CNC5=NC=C4 [AZD6738] (first compound max 10 µM, 7x7, partner max 10 µM), for which the Bliss excess in assay [1] is -0.0941; in assay [2], -0.03; in assay [3], -0.0592. Further, in assay [4], the “combination Emax” value worked out at 0.943.

Turning to `NC1(C(=O)N[C@@H](CCO)c2ccc(Cl)cc2)CCN(c2ncnc3[nH]ccc23)CC1` [Capivasertib] + CC(=O)c1c(C)c2cnc(Nc3ccc(N4CCNCC4)cn3)nc2n(C2CCCC2)c1=O [Palbociclib] (first compound max 10 µM, 7x7, partner max 10 µM), the results for the Bliss excess in assay [1], in assay [2] and in assay [3] were 0.0866, -0.0671 and -0.0616, respectively. Moreover, the “combination Emax” value in assay [4] was found to be 0.587.

Consider `CCN(CCO)CCCOc1ccc2c(Nc3cc(CC(=O)Nc4cccc(F)c4)[nH]n3)ncnc2c1` [AZD2811] + C[C@@H]1COCCN1C2=NC(=NC(=C2)C3(CC3)[S@](=N)(=O)C)C4=C5C=CNC5=NC=C4 [AZD6738] (first compound max 1 µM, 7x7, partner max 10 µM), for which the Bliss excess in assay [2] was -0.0673; in assay [3], -0.0205.

As for `CCN(CCO)CCCOc1ccc2c(Nc3cc(CC(=O)Nc4cccc(F)c4)[nH]n3)ncnc2c1` [AZD2811] + C=CCn1c(=O)c2cnc(Nc3ccc(N4CCN(C)CC4)cc3)nc2n1-c1cccc(C(C)(C)O)n1 [AZD1775] (first compound max 1 µM, partner max 1 µM), the Bliss excess in assay [2] is 0.0252; in assay [3] it was -0.0925.

`CC1(C)CCC(CN2CCN(c3ccc(C(=O)NS(=O)(=O)c4ccc(NCC5CCOCC5)c([N+](=O)[O-])c4)c(Oc4cnc5[nH]ccc5c4)c3)CC2)=C(c2ccc(Cl)cc2)C1` [Venetoclax] + C=CCn1c(=O)c2cnc(Nc3ccc(N4CCN(C)CC4)cc3)nc2n1-c1cccc(C(C)(C)O)n1 [AZD1775] (first compound max 1 µM, partner max 1 µM): the Bliss excess in assay [2] is -0.0295; in assay [3], 0.108.

As for `COc1cccc(OCCCN)c1-c1cc(Nc2cnc(C#N)cn2)n[nH]1` [Prexasertib] + O=C(c1cc(Cc2n[nH]c(=O)c3ccccc23)ccc1F)N1CCN(C(=O)C2CC2)CC1 [Olaparib] (first compound max 1 µM, 7x7, partner max 10 µM), the Bliss excess in assay [2] is -0.0088; in assay [3], -0.0406.

With `CN(CCO)CC[C@H](CSc1ccccc1)Nc1ccc(S(=O)(=O)NC(=O)c2ccc(N3CCC([C@@H](O)c4ccccc4-c4ccc(Cl)cc4)CC3)cc2)cc1S(=O)(=O)C(F)(F)F` [AZD4320] + C=CCn1c(=O)c2cnc(Nc3ccc(N4CCN(C)CC4)cc3)nc2n1-c1cccc(C(C)(C)O)n1 [AZD1775] (first compound max 1 µM, partner max 1 µM), the Bliss excess was 0.0178 in assay [2] and -0.0447 in assay [3].

Take `CC1(C)CCC(CN2CCN(c3ccc(C(=O)NS(=O)(=O)c4ccc(NCC5CCOCC5)c([N+](=O)[O-])c4)c(Oc4cnc5[nH]ccc5c4)c3)CC2)=C(c2ccc(Cl)cc2)C1` [Venetoclax] + Cn1cnc2c(F)c(Nc3ccc(Br)cc3Cl)c(C(=O)NOCCO)cc21 [Selumetinib] (first compound max 1 µM, 7x7, partner max 3 µM): the Bliss excess in assay [2] is 0.0054; in assay [3], -0.141.

Turning to `Cc1cc2ncnn2cc1Nc1ncc2c(n1)n(C1CCOCC1)c(=O)n2C` [AZD7648] + C=CCn1c(=O)c2cnc(Nc3ccc(N4CCN(C)CC4)cc3)nc2n1-c1cccc(C(C)(C)O)n1 [AZD1775] (first compound max 10 µM, partner max 1 µM), the Bliss excess was 0.0346 in assay [2] and -0.0316 in assay [3].

In the case of `COc1cccc(OCCCN)c1-c1cc(Nc2cnc(C#N)cn2)n[nH]1` [Prexasertib] + C=CCn1c(=O)c2cnc(Nc3ccc(N4CCN(C)CC4)cc3)nc2n1-c1cccc(C(C)(C)O)n1 [AZD1775] (first compound max 1 µM, partner max 1 µM), the Bliss excess came out at 0.0958 in assay [2] and 0.0276 in assay [3].

In the case of `CN(C)CCCOc1ccc(-c2ccc3ncc4c(c3c2)n(C2CCOCC2)c(=O)n4C)cn1` [AZD0156] + C=CCn1c(=O)c2cnc(Nc3ccc(N4CCN(C)CC4)cc3)nc2n1-c1cccc(C(C)(C)O)n1 [AZD1775] (first compound max 1 µM, partner max 1 µM), the Bliss excess is -0.0167 in assay [2] and 0.0097 in assay [3].

For the compound `CC1(C)CCC(CN2CCN(c3ccc(C(=O)NS(=O)(=O)c4ccc(NCC5CCOCC5)c([N+](=O)[O-])c4)c(Oc4cnc5[nH]ccc5c4)c3)CC2)=C(c2ccc(Cl)cc2)C1` [Venetoclax] + CCN(CCO)CCCOc1ccc2c(Nc3cc(CC(=O)Nc4cccc(F)c4)[nH]n3)ncnc2c1 [AZD2811] (first compound max 1 µM, 7x7, partner max 1 µM), the Bliss excess is -0.0616 in assay [2] and -0.0299 in assay [3].

As to `CCc1c2c(nc3ccc(O)cc13)-c1cc3c(c(=O)n1C2)COC(=O)[C@]3(O)CC` [SN-38] + CN(C)CCCOc1ccc(-c2ccc3ncc4c(c3c2)n(C2CCOCC2)c(=O)n4C)cn1 [AZD0156] (first compound max 0.3 µM, 7x7, partner max 1 µM), the Bliss excess was 0.116 in assay [2] and 0.0498 in assay [3].

For the compound `CN(CCO)CC[C@H](CSc1ccccc1)Nc1ccc(S(=O)(=O)NC(=O)c2ccc(N3CCC([C@@H](O)c4ccccc4-c4ccc(Cl)cc4)CC3)cc2)cc1S(=O)(=O)C(F)(F)F` [AZD4320] + C[C@@H]1COCCN1C2=NC(=NC(=C2)C3(CC3)[S@](=N)(=O)C)C4=C5C=CNC5=NC=C4 [AZD6738] (first compound max 1 µM, 7x7, partner max 10 µM), the results for the Bliss excess in assay [2] and in assay [3] were -0.0283 and -0.0502, respectively.

Turning to `CN(CCO)CC[C@H](CSc1ccccc1)Nc1ccc(S(=O)(=O)NC(=O)c2ccc(N3CCC([C@@H](O)c4ccccc4-c4ccc(Cl)cc4)CC3)cc2)cc1S(=O)(=O)C(F)(F)F` [AZD4320] + CCN(CCO)CCCOc1ccc2c(Nc3cc(CC(=O)Nc4cccc(F)c4)[nH]n3)ncnc2c1 [AZD2811] (first compound max 1 µM, 7x7, partner max 1 µM), the Bliss excess in assay [2] was -0.0247; in assay [3] it was -0.0097.

On to `C[C@@H]1COCCN1c1cc(C2([S@](C)(=N)=O)CC2)nc(-c2ccnc3[nH]ccc23)n1` [AZD6738] + O=C(c1cc(Cc2n[nH]c(=O)c3ccccc23)ccc1F)N1CCN(C(=O)C2CC2)CC1 [Olaparib] (first compound max 10 µM, 7x7, partner max 10 µM), for which the Bliss excess in assay [2] was 0.0058; in assay [3] it was -0.0026.

Take `CC1(C)CCC(CN2CCN(c3ccc(C(=O)NS(=O)(=O)c4ccc(NCC5CCOCC5)c([N+](=O)[O-])c4)c(Oc4cnc5[nH]ccc5c4)c3)CC2)=C(c2ccc(Cl)cc2)C1` [Venetoclax] + CN(C)CCCOc1ccc(-c2ccc3ncc4c(c3c2)n(C2CCOCC2)c(=O)n4C)cn1 [AZD0156] (first compound max 1 µM, 7x7, partner max 1 µM): the Bliss excess in assay [2] is -0.0035; in assay [3], 0.0106.

Consider `Cc1c2c(nn1C)CSCc1cc(n(C)n1)CSc1cc(c3ccccc3c1)OCCCc1c(C(=O)O)n(C)c3c-2c(Cl)ccc13` [AZD5991] + C=CCn1c(=O)c2cnc(Nc3ccc(N4CCN(C)CC4)cc3)nc2n1-c1cccc(C(C)(C)O)n1 [AZD1775] (first compound max 1 µM, partner max 1 µM), for which the Bliss excess in assay [2] was -0.0337; in assay [3] it was -0.0067.

For `CCN(CCO)CCCOc1ccc2c(Nc3cc(CC(=O)Nc4cccc(F)c4)[nH]n3)ncnc2c1` [AZD2811] + O=C(c1cc(Cc2n[nH]c(=O)c3ccccc23)ccc1F)N1CCN(C(=O)C2CC2)CC1 [Olaparib] (first compound max 1 µM, 7x7, partner max 10 µM), the values for the Bliss excess in assay [2] and in assay [3] were -0.0965 and -0.0464, respectively.

Consider `CN(CCO)CC[C@H](CSc1ccccc1)Nc1ccc(S(=O)(=O)NC(=O)c2ccc(N3CCC([C@@H](O)c4ccccc4-c4ccc(Cl)cc4)CC3)cc2)cc1S(=O)(=O)C(F)(F)F` [AZD4320] + C1CN(CCC1(C(=O)N[C@@H](CCO)C2=CC=C(C=C2)Cl)N)C3=NC=NC4=C3C=CN4 [Capivasertib] (first compound max 1 µM, 7x7, partner max 3 µM), for which the Bliss excess in assay [2] was 0.0026; in assay [3], -0.0345.
